The source of these data is patent US20110218172A1, “COMPOSITION FOR DOWN-REGULATING PRO-INFLAMMATORY MARKERS” (priority 2010, published 2011).

Test [1] deals with Mycobacterium tuberculli induced inflammatory arthritis in rats (injected paw). In words: Adjuvant-induced developing inflammatory arthritis (prophylactic), injected paw oedema. Type of test: in vivo, Wistar rats. Particulars: 100 mg/kg oral once daily, day 14, injected paw. The procedure: Wistar rats, 12-14 weeks old, 140-160 g body weight in groups of 6 were employed in the study. All the animals were maintained in plastic cages at 22±2° C. with 12 h light/dark cycle and free access to pellet food and water. Test materials were administered orally once a day for the duration of the experiment. In all the experiments, a control group was maintained (vehicle administered) whilst the other group received a standard drug acetylsalicylic acid (ASA) administered once daily for comparison and authenticity/credibility of the test. The entire study was carried out after approval from Institutional Animal Ethics Committee and all the animals used in experimental work received humane care. The mean and standard error (S.E.) of the mean for each group was calculated and the results were expressed as percent inhibition compared to control group. The significance was determined statistically by applying Student's t-test.
Adjuvant arthritis was induced by the sub-plantar injection of 0.05 ml freshly prepared suspension (5.0 mg/ml) of steam killed Mycobacterium tuberculosis in liquid paraffin [Newbould BB. Chemotherapy of arthritis induced in rats by mycobacterial adjuvant. Br J Pharmacol 1963; 21:127-36]. The volume of the injected paws was quantitated before and on day 14th after the adjuvant injection and was measured by a volume differential meter model LE 7500N, Panlab, Spain.

Test [2] concerns intracellular TNF-α in murine neutrophils. In words: Intracellular in vitro TNF-α estimation in LPS-stimulated murine neutrophils (flow cytometry). The test is classed as cell-based. Particulars: 100 μg/ml, 3 h. The procedure:
Cells were stimulated with LPS and incubated with test materials at graded concentrations (μg/ml) for 3 hours, in a CO2 incubator. The permeabilising solution was added to the cells and then these were incubated for 10 min. The cells were then labeled with conjugated anti-mouse TNF-α monoclonal antibody and further incubation of 30 min. duration was carried out in dark. After washing with Phosphate buffered saline, the samples were acquired directly on BD-Cantoll Flowcytometer (Beckton-Dickinson Biosciences, CA, USA). A fluorescence trigger was set on the FL1 parameter of the gated neutrophils populations (10,000 events) and fluorescence compensation, data analysis and data presentation was performed using Cell Quest Pro software. [Clara, B., R. C. Arancha, G. M. Andre's, P. Atanasio, A. Julia, and O. Alberto. 2003. A new method for detecting TNF-α-secreting cells using direct immunofluorescence surface membrane stainings. J. Immuno. Methods 264:77-87.][Khurshid A. Bhat, Bhahwal A. Shah, Kuldeep K. Gupta, Anjali Pandey, Sarang Bani, Subhash C. Taneja. Semi-synthetic analogs of pinitol as potential inhibitors of TNF-a cytokine expression in human neutrophils. Bioorganic & Medicinal Chemistry Letters 19 2009, 1939-1943].

By inhibition is commonly meant the drop in the measured response relative to a control, in per cent. Regarding `CC(=O)Oc1ccccc1C(=O)O` [ASA, Acetylsalicylic acid], the “Oedema Mean ± S.E.” value in test [1] came to 1.82 ± 0.17 mm. In addition, the inhibition at 100 mg/kg in test [1] (Mycobacterium, 336 h, read-out: Percentage Activity Against Arthritic Control (↓ percent inhibition)) came to 37%.
As to `COc1ccc(C2CNC(=O)C2)cc1OC1CCCC1` (stereo not shown) [Rolipram], the “% TNF-alpha expression against LPS control (↓ decrease)” value in test [2] is 71.48↓ %. Besides, the “intracellular TNF-α expression Mean ± S.E” value in test [2] (n=3) was 0.71 ± 0.04.
